The results in this text go back to patent US20110038885A1, “CHEMOKINE ANALOGS” (priority 2007, published 2011).

One may read the EC50 as the concentration giving half of the maximal effect. A lower EC50 goes with greater potency.

Numbered stars: 1 amine (or outer) side, 2 acyl side, 3 side chain; on linkers, the order of the positions; unused ones are H or OH. Bridge positions count the residues as written; N and C are the ends. Square brackets hold non-standard residues; d marks the D form. Peptide text beside a SMILES is read from it. * marks the point of attachment. Glutaryl = O=C(CCCC(=O)[*:2])[*:1]; 1Naphthoyl = O=C(c1cccc2ccccc12)*; Suc = O=C(CCC(=O)[*:2])[*:1]; X4 = O=C(c1cc2ccccc2[nH]1)*; hCys = N[C@@H](CCS)C(=O)O; Isobutyryl = CC(C)C(=O)*; Octanoyl = CCCCCCCC(=O)*; Orn = NCCC[C@H](N)C(=O)O; X5 = O=C(/C=C/c1ccccc1)*; Dab = NCC[C@H](N)C(=O)O; Dap = NC[C@H](N)C(=O)O; Piv = CC(C)(C)C(=O)*; Ahp = NCCCCCCC(=O)O; Butyryl = CCCC(=O)*; Ava = NCCCCC(=O)O; GABA = NCCCC(=O)O

The experiment concerns MCP-1. As to the kind of experiment: In vitro chemotaxis (trans-well migration) v MCP-1. Type of experiment: cell-based, human. As to the method:
To determine whether an agent inhibits a chemokine-induced activity, such as macrophage recruitment, varying amounts of the agent are mixed with cells in the presence of a known chemoattractant. For example, a range of known concentrations of an agent, e.g., a chemokine peptide, is incubated with a defined number (e.g., 10^4-10^6) of human THP-1 monocyte cells in individual wells of the top compartment of a trans-well plate. Chemokine, at a concentration known to cause significant migration of THP-1 cells in the trans-well migration assay, is placed in the lower compartment of a trans-well plate. Cells are then incubated at 37° C. for a period sufficient to allow migration, e.g., 4 hours. After incubation, the cells are gently removed from the top of the filter with a pipette, 20 μl of 20 mM EDTA in simple PBS is added into each top well, and incubated for 20 minutes at 4° C. The filter is carefully flushed with media using a gentle flow, and removed. A standard curve consisting of a two-fold dilution series of THP-1 cells (in 29 μl) is placed to accurately quantify the number of cells that have migrated. Migrated cells are stained with 3 μl of MTT stock dye solution which is added directly into each well (5 mg/ml in RPMI-1640 without phenol red) (Sigma Chemical Co., St. Louis, Mo., USA) and incubated at 37° C. for 4 hours. The media is carefully aspirated from each well, and the converted dye is solubilized by 20 μl of DMSO. Absorbance of converted dye is measured at a wavelength of 595 nm using an ELISA plate reader. The number of migrated cells in each well is then determined by interpolation of the standard curve (see also Imai et al., J. Biol. Chem., 272:15036, 1997). Any method suitable for counting cells can be used, for example, counting with a hemocytometer, incubation of the cells with MTT (see above), or FACS analysis. A negative control assay is also performed, using TGFβ or another non-chemokine chemoattractant (e.g., IL1β or TNFα). To assess whether the agent is cytotoxic, the same concentrations of agent are incubated with THP-1 cells. Agents which 1) are not cytotoxic at levels which inhibit migration, 2) are ineffective at inhibiting the negative control-induced migration, and 3) reduce or inhibit chemokine-induced THP-1 migration, are agents which fall within the scope of the invention.

In turn, `CC[C@H](C)[C@@H]1NC(=O)[C@H](Cc2c[nH]c3ccccc23)NC(=O)[C@H](CCCCN)NC(=O)[C@@H](NC(C)=O)CCC(=O)NCC[C@@H](C(N)=O)NC(=O)[C@H](CCC(N)=O)NC1=O` [Example 114, Ac-c(Glu-Lys-Trp-Ile-Gln-Dab)-NH2] (Ac-EKWIQ[Dab]-NH2; lactam 1-6) had a concentration for a half-maximal effect (EC50) of 8 nM.
Compound `CC[C@H](C)[C@@H]1NC(=O)[C@H](Cc2c[nH]c3ccccc23)NC(=O)[C@H](CCCCN)NC(=O)[C@@H](NC(C)=O)CCC(=O)NCCC[C@@H](C(N)=O)NC(=O)[C@H](CCC(N)=O)NC1=O` [Example 115, Ac-c(Glu-Lys-Trp-Ile-Gln-Orn)-NH2] (Ac-EKWIQ[Orn]-NH2; lactam 1-6) returned a concentration giving a half-maximal response (EC50) of 5 nM.
Then `CC[C@H](C)[C@@H]1NC(=O)[C@H](Cc2c[nH]c3ccccc23)NC(=O)[C@H](CCCCN)NC(=O)CCC(=O)NCCC[C@@H](C(N)=O)NC(=O)[C@H](CCC(N)=O)NC1=O` [Example 62, c(Succinyl-Lys-Trp-Ile-Gln-Orn)-NH2] (KWIQ[Orn]-NH2; linker N-5 via Suc), with 66 nM; and `CC[C@H](C)[C@@H]1NC(=O)[C@H](Cc2c[nH]c3ccccc23)NC(=O)[C@H](CCCCN)NC(=O)[C@@H](NC(=O)C(C)C)CCCCNC(=O)CC[C@@H](C(N)=O)NC(=O)[C@H](CCC(N)=O)NC1=O` [Example 109, Isobutyryl-c(Lys-Lys-Trp-Ile-Gln-Glu)-NH2] (Isobutyryl-KKWIQE-NH2; lactam 1-6), with 8 nM.
Then `CC[C@H](C)[C@@H]1NC(=O)[C@H](Cc2c[nH]c3ccccc23)NC(=O)[C@H](CCCCN)NC(=O)[C@@H](NC(=O)/C=C/c2ccccc2)CSSC[C@@H](C(N)=O)NC(=O)[C@H](CCC(N)=O)NC1=O` [Example 72, trans-Ciimamoyl-c(Cys-Lys-Trp-Ile-Gln-Cys)-NH2] (X5-CKWIQC-NH2; disulfide 1-6), with 8 nM; and `CC[C@H](C)[C@@H]1NC(=O)[C@H](Cc2c[nH]c3ccccc23)NC(=O)[C@H](CCCCN)NC(=O)CCCC(=O)NCC[C@@H](C(N)=O)NC(=O)[C@H](CCC(N)=O)NC1=O` [Example 128, c(Glutaryl-Lys-Trp-Ile-Gln-Dab)-NH2] (KWIQ[Dab]-NH2; linker N-5 via Glutaryl), with 10 nM; and `CC[C@H](C)[C@@H]1NC(=O)[C@H](Cc2c[nH]c3ccccc23)NC(=O)[C@H](CCCCN)NC(=O)CCCCCCNC(=O)CC[C@@H](C(N)=O)NC(=O)[C@H](CCC(N)=O)NC1=O` [Example 94, c(Aha-Lys-Trp-Ile-Gln-Glu)-NH2] ([Ahp]KWIQE-NH2; lactam N-6), with 10 nM.
In turn, `CC[C@H](C)[C@@H]1NC(=O)[C@H](Cc2c[nH]c3ccccc23)NC(=O)[C@H](CCCCN)NC(=O)[C@@H](NC(=O)c2cccc3ccccc23)CSSC[C@@H](C(N)=O)NC(=O)[C@H](CCC(N)=O)NC1=O` [Example 68, 1-Naphthoyl-c(Cys-Lys-Trp-Ile-Gln-Cys)-NH2] (1Naphthoyl-CKWIQC-NH2; disulfide 1-6) showed an EC50 of 30 nM.
`CC[C@@H](C)[C@H]1NC(=O)[C@@H](CCC(N)=O)NC(=O)CCCCNC(=O)C[C@H](C(N)=O)NC(=O)[C@@H](CCCCN)NC(=O)[C@@H](Cc2c[nH]c3ccccc23)NC1=O` [Example 197, c(Apn-D-Gln-D-Ile-D-Trp-D-Lys-D-Asp)-NH2] ([Ava][dQ][dI][dW][dK][dD]-NH2; lactam N-6) yielded an EC50 of 20 nM.
For `CCCC(=O)N[C@@H]1CSSC[C@H](C(N)=O)NC(=O)[C@@H](CCCCN)NC(=O)[C@@H](Cc2c[nH]c3ccccc23)NC(=O)[C@@H](C(C)C)NC(=O)[C@@H](CCC(N)=O)NC1=O` [Example 200, Butanyl-c(D-Cys-D-Gln-D-Val-D-Trp-D-Lys-D-Cys)-NH2] (Butyryl-[dC][dQ][dV][dW][dK][dC]-NH2; disulfide 1-6), the EC50 stood at 30 nM.
`CC[C@H](C)[C@@H]1NC(=O)[C@H](Cc2c[nH]c3ccccc23)NC(=O)[C@@H](CCCCN)NC(=O)[C@@H](NC(C)=O)CSSC[C@@H](C(N)=O)NC(=O)[C@H](CCC(N)=O)NC1=O` [Example 78, Ac-c(Cys-D-Lys-Trp-Ile-Gln-Cys)-NH2] (Ac-C[dK]WIQC-NH2; disulfide 1-6) registered a half-maximal effective concentration (EC50) of 30 nM.
As to `CC[C@H](C)[C@@H]1NC(=O)[C@H](Cc2c[nH]c3ccccc23)NC(=O)[C@H](CCCCN)NC(=O)CSCC[C@@H](C(N)=O)NC(=O)[C@H](CCC(N)=O)NC1=O` [Example 4, (Ac=Lys=Trp=Ile=Gln=hCyc)=NH2] ({CH2CO}-KWIQ[hCys]-NH2; thioether N-5), the EC50 came to 20 nM.
With `CC[C@H](C)[C@@H]1NC(=O)[C@H](Cc2c[nH]c3ccccc23)NC(=O)[C@H](CCCCN)NC(=O)CCCNC(=O)CC[C@@H](C(N)=O)NC(=O)[C@H](CCC(N)=O)NC1=O` [Example 61, c(Gaba-Lys-Trp-Ile-Gln-Glu)-NH2] ([GABA]KWIQE-NH2; lactam N-6), the response was half-maximal at 25 nM (EC50).
Under `CC[C@H](C)[C@@H]1NC(=O)[C@H](Cc2c[nH]c3ccccc23)NC(=O)[C@H](CCCCN)NC(=O)[C@@H](NC(=O)c2cc3ccccc3[nH]2)CSSC[C@@H](C(N)=O)NC(=O)[C@H](CCC(N)=O)NC1=O` [Example 70, 2-Indolecarboxyl-c(Cys-Lys-Trp-Ile-Gln-Cys)-NH2] (X4-CKWIQC-NH2; disulfide 1-6) stands 5 nM; under `CC[C@H](C)[C@@H]1NC(=O)[C@H](Cc2c[nH]c3ccccc23)NC(=O)[C@H](CCCCN)NC(=O)CCC(=O)NC[C@@H](C(N)=O)NC(=O)[C@H](CCC(N)=O)NC1=O` [Example 125, c(Succinyl-Lys-Trp-Ile-Gln-Dap)-NH2] (KWIQ[Dap]-NH2; linker N-5 via Suc), 15 nM.
Then `CC[C@H](C)[C@@H]1NC(=O)[C@H](Cc2c[nH]c3ccccc23)NC(=O)[C@H](CCCCN)NC(=O)CNC(=O)CC[C@@H](C(N)=O)NC(=O)[C@H](CCC(N)=O)NC1=O` [Example 88, c(Gly-Lys-Trp-Ile-Gln-Glu)-NH2] (GKWIQE-NH2; lactam N-6), with 9 nM; and `CC[C@H](C)[C@@H]1NC(=O)[C@H](Cc2c[nH]c3ccccc23)NC(=O)[C@H](CCCCN)NC(=O)[C@@H](NC(=O)C(C)(C)C)CSSC[C@@H](C(N)=O)NC(=O)[C@H](CCC(N)=O)NC1=O` [Example 66, Trimethylacetyl-c(Cys-Lys-Trp-Ile-Gln-Cys)-NH2] (Piv-CKWIQC-NH2; disulfide 1-6), with 10 nM; and `CC[C@H](C)[C@@H]1NC(=O)[C@H](Cc2c[nH]c3ccccc23)NC(=O)[C@H](CCCCN)NC(=O)[C@@H](NC(C)=O)CSSC[C@@H](C(N)=O)NC(=O)[C@@H](CCC(N)=O)NC1=O` [Example 75, Ac-c(Cys-Lys-Trp-Ile-D-Gln-Cys)-NH2] (Ac-CKWI[dQ]C-NH2; disulfide 1-6), with 25 nM.
Then “[aminoPeg10-oxaglutaryl]-c(D-Cys-D-Gln-D-Ile-D-Trp-D-Lys-D-Gln-D-Lys-D-Pro-D-Asp-D-Leu-D-Cys)-NH2 [Example 187]”, with 66 nM; and `CC[C@H](C)[C@H](NC(=O)[C@H](Cc1c[nH]c2ccccc12)NC(=O)[C@H](CCCCN)NC(=O)[C@H](CCCN)NC(=O)C(C)C)C(=O)N[C@@H](CCC(N)=O)C(=O)N[C@@H](CC(=O)O)C(N)=O` [Example 202, Isobutyryl-Orn-Lys-Trp-Ile-Gln-Asp-NH2] (Isobutyryl-[Orn]KWIQD-NH2), with 8 nM.
Compound `CC[C@H](C)[C@@H]1NC(=O)[C@H](Cc2c[nH]c3ccccc23)NC(=O)[C@@H](N)CSSC[C@@H](C(N)=O)NC(=O)[C@H](CCC(N)=O)NC1=O` [Example 2, c(Cys-Trp-Ile-Gln-Cys)-NH2] (H-CWIQC-NH2; disulfide 1-5) yielded an EC50 of 7 nM.
Consider `CCCCCCCC(=O)N[C@H]1CSSC[C@@H](C(N)=O)NC(=O)[C@H](CCC(N)=O)NC(=O)[C@H]([C@@H](C)CC)NC(=O)[C@H](Cc2c[nH]c3ccccc23)NC(=O)[C@H](CCCCN)NC1=O` [Example 82, Octanoyl-c(Cys-Lys-Trp-Ile-Gln-Cys)-NH2] (Octanoyl-CKWIQC-NH2; disulfide 1-6), for which the response was half-maximal at 25 nM (EC50).
Compound `CC[C@H](C)[C@@H]1NC(=O)[C@H](Cc2c[nH]c3ccccc23)NC(=O)[C@H](CCCCN)NC(=O)[C@@H](NC(C)=O)CCNC(=O)CC[C@@H](C(N)=O)NC(=O)[C@H](CCC(N)=O)NC1=O` [Example 122, Ac-c(Dab-Lys-Trp-Ile-Gln-Glu)-NH2] (Ac-[Dab]KWIQE-NH2; lactam 1-6) showed an EC50 of 10 nM.
In the case of `CC[C@H](C)[C@@H]1NC(=O)[C@H](Cc2c[nH]c3ccccc23)NC(=O)[C@H](CCCCN)NC(=O)CCCCNC(=O)C[C@@H](C(N)=O)NC(=O)[C@H](CCC(N)=O)NC1=O` [Example 90, c(Apn-Lys-Trp-Ile-Gln-Asp)-NH2] ([Ava]KWIQD-NH2; lactam N-6), a half-maximal response (EC50) required 7 nM. The EC50 values of the last two compounds are within 1.5-fold of each other.
